Patent US11008323B2, “Substituted tricyclic 1,4-benzodiazepinone derivatives as allosteric modulators of group II metabotropic glutamate receptors” (Domain Therapeutics, priority 2015, dated 2021)

What was measured:
human mGluR3 (hmGluR3) = molecular target: T1, human mGluR3 (hmGluR3) (Homo sapiens, UniProt Q14832); assay: Human mGluR3 positive allosteric modulator evaluation using Ca++ functional assay; type: cell-based; conditions: hmGluR3 transiently over-expressed in HEK-293 cells; stimulated by EC50 glutamate concentration; intracellular Ca2+ (Fluo4AM, FLIPR Tetra)
T1 construct: expressed in transfected cells; host or cells: HEK-293 cells, transient co-transfection by electroporation
T1 sequence (Q14832 23-879): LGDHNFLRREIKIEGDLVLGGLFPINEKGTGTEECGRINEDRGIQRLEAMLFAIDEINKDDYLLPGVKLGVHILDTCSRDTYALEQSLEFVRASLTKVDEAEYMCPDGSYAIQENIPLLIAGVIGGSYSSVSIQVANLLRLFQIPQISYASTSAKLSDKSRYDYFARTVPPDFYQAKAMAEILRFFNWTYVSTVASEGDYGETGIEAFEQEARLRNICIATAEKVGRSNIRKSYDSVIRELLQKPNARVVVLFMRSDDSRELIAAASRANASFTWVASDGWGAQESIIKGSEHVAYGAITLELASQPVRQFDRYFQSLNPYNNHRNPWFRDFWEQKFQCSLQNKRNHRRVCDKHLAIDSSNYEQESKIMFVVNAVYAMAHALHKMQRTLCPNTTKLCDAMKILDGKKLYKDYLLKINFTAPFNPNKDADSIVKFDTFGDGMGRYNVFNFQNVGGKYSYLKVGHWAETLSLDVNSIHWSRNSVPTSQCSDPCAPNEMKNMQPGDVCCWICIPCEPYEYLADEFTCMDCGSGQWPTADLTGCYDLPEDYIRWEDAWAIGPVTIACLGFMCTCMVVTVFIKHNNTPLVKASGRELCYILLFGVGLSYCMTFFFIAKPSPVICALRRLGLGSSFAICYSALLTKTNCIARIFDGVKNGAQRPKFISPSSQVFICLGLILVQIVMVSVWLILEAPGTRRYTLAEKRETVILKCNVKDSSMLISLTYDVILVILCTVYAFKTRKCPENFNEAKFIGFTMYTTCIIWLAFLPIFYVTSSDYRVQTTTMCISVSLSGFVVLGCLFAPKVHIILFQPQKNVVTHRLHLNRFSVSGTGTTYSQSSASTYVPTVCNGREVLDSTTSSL
In short: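 Calcium flux (Fluo4, ex 485/em 525 nm) recorded first 10 min with compound alone, then 3 min after an EC50 glutamate challenge, giving agonist and PAM EC50 from 20-concentration sigmoidal fits. Receptor was transiently co-transfected in HEK-293 with chimeric G protein and glutamate transporters.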

Row | SMILES | EC50 (human mGluR3 (hmGluR3)) [nM] | melting point [°C]
1 | CN1C(=O)c2cccn2-c2cc(-c3cnccc3C(F)(F)F)ccc2C12CC2 [Example 37, 5-Methyl-9-(4-trifluoromethylpyridin-3-yl)-spiro[benzo[f]pyrrolo[1,2-a][1,4]diazepine-6,1′-cyclopropan]-4(5H)-one] | > 1000 | 67 to 78
2 | CC(=O)N1CC=C(c2ccc3c(c2)-n2cccc2C(=O)N(C)C32CC2)CC1 [Example 48, 5-Methyl-9-(1-acetyl-1,2,3,6-tetrahydro-pyridin-4-yl)-spiro[benzo[f]pyrrolo[1,2-a][1,4]diazepine-6,1′-cyclopropan]-4(5H)-one] | 100 to 1000 | 101 to 110
3 | Cc1ncoc1-c1ccc2c(c1)-n1cccc1C(=O)N(C)C21CC1 [Example 49, 5-Methyl-9-(4-methyl-oxazol-5-yl)-spiro[benzo[f]pyrrolo[1,2-a][1,4]diazepine-6,1′-cyclopropan]-4(5H)-one] | > 1000 | 120 to 128
4 | Cc1ncsc1-c1ccc2c(c1)-n1cccc1C(=O)N(C)C21CC1 [Example 50, 5-Methyl-9-(4-methylthiazol-5-yl)-spiro[benzo[f]pyrrolo[1,2-a][1,4]diazepine-6,1′-cyclopropan]-4(5H)-one] | 100 to 1000 | 205 to 212
5 | CN1C(=O)c2cccn2-c2cc(CC#N)ccc2C12CC2 [Example 51, 5-Methyl-9-acetonitrile-spiro[benzo[f]pyrrolo[1,2-a][1,4]diazepine-6,1′-cyclopropan]-4(5H)-one] | > 1000 | 60 to 69
6 | CN1C(=O)c2cccn2-c2cc(CCC#N)ccc2C12CC2 [Example 53, 5-Methyl-9-propionitrile-spiro[benzo[f]pyrrolo[1,2-a][1,4]diazepine-6,1′-cyclopropan]-4(5H)-one] | > 1000 | 59 to 64
7 | CN1C(=O)c2cccn2-c2cc(-c3ccc(C(F)(F)F)nc3)ccc2C12CC2 [Example 60, 5-Methyl-9-(6-trifluoromethylpyridin-3-yl)-spiro[benzo[f]pyrrolo[1,2-a][1,4]diazepine-6,1′-cyclopropan]-4(5H)-one] | 100 to 1000 | 88 to 97
8 | CN1C(=O)c2cccn2-c2cc(-c3ncccc3F)ccc2C12CC2 [Example 66, 5-Methyl-9-(3-fluoropyridin-2-yl)-spiro[benzo[f]pyrrolo[1,2-a][1,4]diazepine-6,1′-cyclopropan]-4(5H)-one] | > 1000 | 102 to 118
9 | CN1C(=O)c2cccn2-c2cc(-c3cccc(F)n3)ccc2C12CC2 [Example 67, 5-Methyl-9-(6-fluoropyridin-2-yl)-spiro[benzo[f]pyrrolo[1,2-a][1,4]diazepine-6,1′-cyclopropan]-4(5H)-one] | 100 to 1000 | 106 to 117
10 | CN1C(=O)c2cccn2-c2cc(-c3cc[nH]c(=O)c3)ccc2C12CC2 [Example 68, 5-Methyl-9-(2-hydroxypyridin-4-yl)-spiro[benzo[f]pyrrolo[1,2-a][1,4]diazepine-6,1′-cyclopropan]-4(5H)-one] | > 1000 | 183 to 197
11 | CN1C(=O)c2cccn2-c2cc(-c3ccc(C(F)(F)F)cn3)ccc2C12CC2 [Example 69, 5-Methyl-9-(5-trifluoromethylpyridin-2-yl)-spiro[benzo[f]pyrrolo[1,2-a][1,4]diazepine-6,1′-cyclopropan]-4(5H)-one] | 100 to 1000 | 78 to 89
12 | COC(=O)c1ncccc1-c1ccc2c(c1)-n1cccc1C(=O)N(C)C21CC1 [Example 71, 5-Methyl-9-(2-methoxycarbonylpyridin-3-yl)-spiro[benzo[f]pyrrolo[1,2-a][1,4]diazepine-6,1′-cyclopropan]-4(5H)-one] | > 1000 | 198 to 203
13 | CN1C(=O)c2cccn2-c2cc(-c3cccnc3C(C)(C)O)ccc2C12CC2 [Example 72, 5-Methyl-9-(2-(1-hydroxy-1-methyl-ethyl)-pyridin-3-yl)-spiro[benzo[f]pyrrolo[1,2-a][1,4]diazepine-6,1′-cyclopropan]-4(5H)-one] | > 1000 | 220 to 228
14 | CN1C(=O)c2cccn2-c2cc(-c3ccc(F)nc3)c(F)cc2C12CC2 [Example 78, 8-Fluoro-5-methyl-9-(6-fluoro-pyridin-3-yl)-spiro[benzo[f]pyrrolo[1,2-a][1,4]diazepine-6,1′-cyclopropan]-4(5H)-one] | 100 to 1000 | 185 to 192
15 | CN1C(=O)c2ccc(-c3ccnn3C)n2-c2cc(-c3ccc(F)cn3)ccc2C12CC2 [Example 86, 5-Methyl-1-(2-methyl-2H-pyrazol-3-yl)9-(5-fluoropyridin-2-yl)-spiro[benzo[f]pyrrolo[1,2-a][1,4]diazepine-6,1′-cyclopropan]-4(5H)-one] | > 1000 | 143 to 166

The next lines start with the values.

Row | EC50 (human mGluR3 (hmGluR3)) [nM] | melting point [°C] | SMILES
16 | 100 to 1000 | 75 to 83 | CN1C(=O)c2cccn2-c2cc(-c3cnn(C)c3)ccc2C12CC2 [Example 29, 5-Methyl-9-(1-methyl-pyrazol-4-yl)-spiro[benzo[f]pyrrolo[1,2-a][1,4]diazepine-6,1′-cyclopropan]-4(5H)-one]
17 | 100 to 1000 | 214 to 220 | CN1C(=O)c2cccn2-c2cc(-c3ccnn3C)ccc2C12CC2 [Example 30, 5-Methyl-9-(1-methyl-pyrazol-5-yl)-spiro[benzo[f]pyrrolo[1,2-a][1,4]diazepine-6,1′-cyclopropan]-4(5H)-one]
18 | < 100 | 171 to 176 | CN1C(=O)c2cccn2-c2cc(-c3ccc(F)nc3)ccc2C12CC2 [Example 31, 5-Methyl-9-(6-fluoropyridin-3-yl)-spiro[benzo[f]pyrrolo[1,2-a][1,4]diazepine-6,1′-cyclopropan]-4(5H)-one]
19 | < 100 | 198 to 202 | Cc1nc(F)ccc1-c1ccc2c(c1)-n1cccc1C(=O)N(C)C21CC1 [Example 32, 5-Methyl-9-(6-fluoro-2-methylpyridin-3-yl)-spiro[benzo[f]pyrrolo[1,2-a][1,4]diazepine-6,1′-cyclopropan]-4(5H)-one]
20 | 100 to 1000 | 158 to 162 | CN1C(=O)c2cccn2-c2cc(-c3cccnc3F)ccc2C12CC2 [Example 33, 5-Methyl-9-(2-fluoropyridin-3-yl)-spiro[benzo[f]pyrrolo[1,2-a][1,4]diazepine-6,1′-cyclopropan]-4(5H)-one]
21 | 100 to 1000 | 197 to 201 | CN1C(=O)c2cccn2-c2cc(-c3ccnc(F)c3)ccc2C12CC2 [Example 34, 5-Methyl-9-(2-fluoropyridin-4-yl)-spiro[benzo[f]pyrrolo[1,2-a][1,4]diazepine-6,1′-cyclopropan]-4(5H)-one]
22 | 100 to 1000 | 169 to 174 | CN1C(=O)c2cccn2-c2cc(-c3ccnc(C(F)(F)F)c3)ccc2C12CC2 [Example 35, 5-Methyl-9-(2-trifluoromethylpyridin-4-yl)-spiro[benzo[f]pyrrolo[1,2-a][1,4]diazepine-6,1′-cyclopropan]-4(5H)-one]
23 | 100 to 1000 | 160 to 165 | CN1C(=O)c2cccn2-c2cc(-c3cccnc3C(F)(F)F)ccc2C12CC2 [Example 36, 5-Methyl-9-(2-trifluoromethylpyridin-3-yl)-spiro[benzo[f]pyrrolo[1,2-a][1,4]diazepine-6,1′-cyclopropan]-4(5H)-one]
24 | 100 to 1000 | 150 to 154 | COc1ccc(-c2ccc3c(c2)-n2cccc2C(=O)N(C)C32CC2)cc1OC [Example 39, 5-Methyl-9-(3,4-dimethoxy-phenyl)-spiro[benzo[f]pyrrolo[1,2-a][1,4]diazepine-6,1′-cyclopropan]-4(5H)-one]
25 | < 100 | 189 to 194 | CN1C(=O)c2cccn2-c2cc(-c3cccc(C#N)c3)ccc2C12CC2 [Example 44, 5-Methyl-9-(3-cyanophenyl)-spiro[benzo[f]pyrrolo[1,2-a][1,4]diazepine-6,1′-cyclopropan]-4(5H)-one]
26 | 100 to 1000 | > 250 | CN1C(=O)c2cccn2-c2cc(-c3cccc(-c4nnn[nH]4)c3)ccc2C12CC2 [Example 45, 5-Methyl-9-(3-(1H-tetrazol-5-yl)-phenyl)-spiro[benzo[f]pyrrolo[1,2-a][1,4]diazepine-6,1′-cyclopropan]-4(5H)-one]
27 | < 100 | 166 to 178 | [2H]C([2H])([2H])N1C(=O)c2cccn2-c2cc(-c3ccc(F)nc3)ccc2C12CC2 [Example 55, 5-(Methyl-d3)-9-(6-fluoropyridin-3-yl)-spiro[benzo[f]pyrrolo[1,2-a][1,4]diazepine-6,1′-cyclopropan]-4(5H)-one]
28 | < 100 | 138 to 142 | [2H]C([2H])([2H])N1C(=O)c2cccn2-c2cc(-c3ccc(F)cn3)ccc2C12CC2 [Example 64, 5-(Methyl-d3)-9-(5-fluoropyridin-2-yl)-spiro[benzo[f]pyrrolo[1,2-a][1,4]diazepine-6,1′-cyclopropan]-4(5H)-one]
29 | < 100 | 220 to 225 | CN1C(=O)c2cccn2-c2cc(-c3ccc(F)nc3)cc(F)c2C12CC2 [Example 74, 7-Fluoro-5-methyl-9-(6-fluoro-pyridin-3-yl)-spiro[benzo[f]pyrrolo[1,2-a][1,4]diazepine-6,1′-cyclopropan]-4(5H)-one]
30 | < 100 | 153 to 157 | CN1C(=O)c2cccn2-c2c(ccc(-c3ccc(F)nc3)c2F)C12CC2 [Example 76, 10-Fluoro-5-Methyl-9-(6-fluoro-pyridin-3-yl)-spiro[benzo[f]pyrrolo[1,2-a][1,4]diazepine-6,1′-cyclopropan]-4(5H)-one]
